Patent US7816331B2, “Substituted indazole-O-glucosides” (Janssen Pharmaceutica NV, priority 2003, dated 2010)

Tests used:
human SGLT2 = target: T1, human SGLT2 (Homo sapiens, UniProt P31639); experiment: Cell-based assay for sodium-dependent glucose transport (14C-AMG uptake), CHOK-SGLT2; conditions: for inhibition at 10 µM: CHO-K1, read-out: CHOK-SGLT2 % Inh. @ 10 μM; for IC50: CHO-K1 cells stably expressing human SGLT2, Na-dependent 14C-AMG uptake, read-out: CHOK-SGLT2 IC50 (uM) ± SEM
T1 construct: expressed in transfected cells
T1 sequence (P31639 1-672): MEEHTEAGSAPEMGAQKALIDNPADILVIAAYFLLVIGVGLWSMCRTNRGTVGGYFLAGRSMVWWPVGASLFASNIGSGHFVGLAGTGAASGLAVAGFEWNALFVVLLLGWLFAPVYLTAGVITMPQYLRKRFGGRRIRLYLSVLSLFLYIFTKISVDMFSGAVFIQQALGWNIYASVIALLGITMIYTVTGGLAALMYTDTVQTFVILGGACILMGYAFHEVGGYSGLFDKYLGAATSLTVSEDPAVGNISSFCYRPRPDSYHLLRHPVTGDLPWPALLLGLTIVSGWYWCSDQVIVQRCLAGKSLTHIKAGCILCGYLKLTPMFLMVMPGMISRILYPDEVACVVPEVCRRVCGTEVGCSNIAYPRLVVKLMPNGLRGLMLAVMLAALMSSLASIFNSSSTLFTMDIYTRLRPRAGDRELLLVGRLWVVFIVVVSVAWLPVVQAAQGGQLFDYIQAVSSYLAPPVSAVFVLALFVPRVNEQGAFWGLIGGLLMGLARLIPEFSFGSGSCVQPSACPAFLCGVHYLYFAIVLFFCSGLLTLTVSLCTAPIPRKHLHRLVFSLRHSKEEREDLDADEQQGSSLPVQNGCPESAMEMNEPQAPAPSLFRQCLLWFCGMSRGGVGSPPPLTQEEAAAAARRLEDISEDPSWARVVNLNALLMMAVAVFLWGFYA
Protocol: (§1) Cloning of the human SGLT1 and human SGLT2 cDNAs and construction of the mammalian expression vector: The human SGLT1 cDNA (Genbank M24847) was cloned from human small intestine. Human SGLT2 cDNA (Genbank M95549) was cloned from human kidney. Both full cDNAs were subcloned into pcDNA and sequenced to verify the integrity of the construct. Generation of CHO-K1 cells stably expressing human SGLT1 or human SGLT2: Transfection of CHO-K1 cells was performed using DMRIE-C reagent (Life Technologies, Gaithersburg, Md.). Transfectants were then selected in the presence of the antibiotic G418 (Gibco-BRL, Grand Island, N.Y.) at 400 μg/ml. Individual clones were then characterized using the functional assay described below. Cell-based assay for sodium-dependent glucose transport: Cell lines stably expressing human SGLT1 or SGLT2 were then used for functional analysis of Na^+-dependent glucose uptake. Briefly, cells were plated at a density of 65,000 cells per well in a 96-well plate and allowed to grow for 48 hours. Cells were subsequently washed one time with Assay Buffer (50 mM HEPES pH 7.4, 20 mM Tris, 5 mM KCl, 1 mM MgCl2, 1 mM CaCl2 and 137 mM NaCl) and treated with compound in the absence or presence of NaCl for 15 minutes. Cells were then labeled with ^14C-α-methylglucopyranoside (AMG, Sigma, St. Louis, Mo.), a non-metabolizable glucose analog specific for sodium-dependent glucose transporters as previously described (Peng, H. and Lever J. E. Post-transcriptional regulation of Na^+/glucose cotransporter (SGLT1) gene expression in LLC-PK1 cells. J Biol Chem 1995; 270:20536-20542.). After 2 hours the labelled cells were washed three times with ice-cold PBS. After aspiration, cells were solubilized using Microscint 20 (Packard, Meriden, Conn.) and Na-dependent ^14C-AMG uptake was quantified by measuring radioactivity. Plates were counted in a TopCount (Packard, Meriden, Conn.). Results are reported as the % inhibition or IC50 value from a representative experiment.

human SGLT1 = target: T2, human SGLT1 (Homo sapiens, UniProt P13866); experiment: Cell-based assay for sodium-dependent glucose transport (14C-AMG uptake), CHOK-SGLT1; conditions: 10 uM compound, CHO-K1 cells stably expressing human SGLT1, Na-dependent 14C-AMG uptake; for inhibition at 10 µM: read-out: CHOK-SGLT1 % Inh (10 uM)
T2 construct: expressed in transfected cells
T2 sequence (P13866 1-664): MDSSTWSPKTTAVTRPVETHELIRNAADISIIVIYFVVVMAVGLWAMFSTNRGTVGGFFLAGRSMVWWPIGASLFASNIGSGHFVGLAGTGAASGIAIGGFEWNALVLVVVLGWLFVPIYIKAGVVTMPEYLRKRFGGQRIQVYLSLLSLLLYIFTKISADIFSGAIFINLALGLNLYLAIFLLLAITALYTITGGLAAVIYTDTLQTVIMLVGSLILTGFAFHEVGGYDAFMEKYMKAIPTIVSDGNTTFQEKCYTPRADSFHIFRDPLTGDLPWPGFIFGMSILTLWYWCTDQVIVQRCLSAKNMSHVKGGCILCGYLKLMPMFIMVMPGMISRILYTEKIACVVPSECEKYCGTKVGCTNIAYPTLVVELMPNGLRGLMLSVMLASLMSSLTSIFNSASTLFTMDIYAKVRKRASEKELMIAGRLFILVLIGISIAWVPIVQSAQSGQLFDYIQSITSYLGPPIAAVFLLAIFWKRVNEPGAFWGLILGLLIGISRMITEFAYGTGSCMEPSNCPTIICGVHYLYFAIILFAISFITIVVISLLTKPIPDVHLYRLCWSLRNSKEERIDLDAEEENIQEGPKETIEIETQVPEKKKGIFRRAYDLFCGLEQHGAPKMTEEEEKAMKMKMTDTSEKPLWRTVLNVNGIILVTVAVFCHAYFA
Protocol: as §1, with “experiment. Variability for the functional assay was typically within 20%.” for “experiment.”

SMILES	inhibition at 10 µM (human SGLT2) [%]	inhibition at 10 µM (human SGLT1) [%]	IC50 (human SGLT2) [µM]	CHOK-SGLT1 % Inh (10 uM) (human SGLT1)
Cc1cc(OC2OC(CO)C(O)C(O)C2O)c2c(CCc3ccc(Cl)cc3)n[nH]c2c1 [Example 11, 2-{3-[2-(4-Chloro-phenyl)-ethyl]-6-methyl-1H-indazol-4-yloxy}-β-D-glucopyranoside]	66	12	–	–
COc1ccc(SCc2n[nH]c3cccc(OC4OC(CO)C(O)C(O)C4O)c23)cc1 [Example 20, 2-[3-(4-Methoxy-phenylsulfanylmethyl)-1H-indazol-4-yloxy]-β-D-glucopyranoside]	64	38	–	–
Cc1cc(OC2OC(CO)C(O)C(O)C2O)c2c(CCc3ccc4ccccc4c3)n[nH]c2c1 [Example 4, 2-[6-Methyl-3-(2-naphthalen-2-yl-ethyl)-1H-indazol-4-yloxy]-β-D-glucopyranoside]	–	18	1.95 ± 0.816	–
Cc1cc(O[C@@H]2OC(CO)[C@@H](O)[C@H](O)[C@H]2O)c2c(CCc3ccc4occc4c3)n[nH]c2c1 (stereo partly drawn) [Example 13, 2-[3-(2-Benzofuran-5-yl-ethyl)-6-methyl-1H-indazol-4-yloxy]-β-D-glucopyranoside]	–	52	–	–
Cc1cc(OC2OC(CO)C(O)C(O)C2O)c2c(CCc3ccc(C(F)(F)F)cc3)n[nH]c2c1 [Example 12, 2-{3-[2-(4-Trifluoromethyl-phenyl)-ethyl]-6-methyl-1H-indazol-4-yloxy}β-D-glucopyranoside]	36	–	–	inactive
CC(=O)OC[C@H]1O[C@@H](Oc2cc(C)cc3[nH]nc(CCc4ccc5occc5c4)c23)[C@H](O)[C@@H](O)[C@@H]1O [Example 14, 2-[3-(2-Benzofuran-5-yl-ethyl)-6-methyl-1H-indazol-4-yloxy]-6-O-acetyl-β-D-glucopyranoside]	–	42	1.5 ± 0.071	–
COc1ccc2cc(CCc3n[nH]c4cc(C)cc(OC5OC(CO)C(O)C(O)C5O)c34)ccc2c1 [Example 6, 2-{3-[2-(6-Methoxy-naphthalen-2-yl)-ethyl]-6-methyl-1H-indazol-4-yloxy}-β-D-glucopyranoside]	–	7	1	–
Cc1cc(OC2OC(CO)C(O)C(O)C2O)c2c(CCc3ccc(NS(C)(=O)=O)cc3)n[nH]c2c1 [Example 16, 2-{3-[2-(4-Methanesulfonylamino-phenyl)-ethyl]-6-methyl-1H-indazol-4-yloxy}β-D-glucopyranoside]	42	–	–	inactive
COc1ccc2c(c1)CCC(CCc1n[nH]c3cc(C)cc(OC4OC(CO)C(O)C(O)C4O)c13)C2 [Example 8, 2-{3-[2-(6-Methoxy-1,2,3,4-tetrahydro-naphthalen-2-yl)-ethyl]-6-methyl-1H-indazol-4-yloxy}-β-D-glucopyranoside]	67	–	–	inactive
OC[C@H]1O[C@@H](Oc2cccc3[nH]nc(CCc4ccc5occc5c4)c23)[C@H](O)[C@@H](O)[C@@H]1O [Example 18]	–	43	1.2 ± 0.071	–
Cc1cc(OC2OC(CO)C(O)C(O)C2O)c2c(CCC3CCCCC3)n[nH]c2c1 [Example 17, 2-[3-(2-Cyclohexyl-ethyl)-6-methyl-1H-indazol-4-yloxy]-β-D-glucopyranoside]	67	–	–	inactive

Next, values leading:

inhibition at 10 µM (human SGLT2) [%]	inhibition at 10 µM (human SGLT1) [%]	IC50 (human SGLT2) [µM]	CHOK-SGLT1 % Inh (10 uM) (human SGLT1)	SMILES
69	14	–	–	CC(=O)OC[C@H]1O[C@@H](Oc2cc(C)cc3[nH]nc(CCc4ccc5c(c4)CCO5)c23)[C@H](O)[C@@H](O)[C@@H]1O [Example 2, 2-{3-[2-(2,3-Dihydro-benzofuran-5-yl)-ethyl]-6-methyl-1H-indazol-4-yloxy}-6-O— acetyl-β-D-glucopyranoside]
40	–	–	inactive	Cc1cc(O[C@@H]2O[C@H](CO)[C@@H](O)[C@H](O)[C@H]2O)c2c(Cc3ccc4c(c3)CCO4)n[nH]c2c1 [Example 22, 2-[3-(2,3-Dihydro-benzofuran-5-ylmethyl)-6-methyl-1H-indazol-4-yloxy]-β-D-glucopyranoside]
–	–	0.959 ± 0.118	inactive	COc1ccc(Cc2n[nH]c3cc(C)cc(O[C@@H]4O[C@H](CO)[C@@H](O)[C@H](O)[C@H]4O)c23)cc1 [Example 21, 2-[3-(4-Methoxy-benzyl)-6-methyl-1H-indazol-4-yloxy]-β-D-glucopyranoside]
–	–	0.532 ± 0.047	inactive	CCc1cc(O[C@@H]2O[C@H](CO)[C@@H](O)[C@H](O)[C@H]2O)c2c(CCc3ccc4c(c3)CCO4)n[nH]c2c1 [Example 19, 2-{3-[2-(2,3-Dihydro-benzofuran-5-yl)-ethyl]-6-ethyl-1H-indazol-4-yloxy}-D-glucopyranoside]
43	–	–	inactive	COC1CCc2cc(CCc3n[nH]c4cc(C)cc(OC5OC(CO)C(O)C(O)C5O)c34)ccc2C1 [Example 7, 2-{3-[2-(6-Methoxy-5,6,7,8-tetrahydro-naphthalen-2-yl)-ethyl]-6-methyl-1H-indazol-4-yloxy}β-D-glucopyranoside]
